Laboratory results as given in patent US7786141B2 (Vertex Pharmaceuticals Incorporated, priority 2004, dated 2010).
Like-named read-outs stand apart in the source and are kept apart here.

What was measured:
M4 muscarinic receptor = target: T1, M4 muscarinic receptor (Homo sapiens, UniProt P08173); assay: Functional mobilization of intracellular calcium (FLIPR) in M4-CHO cells; format: cell-based
T1 construct: expressed in transfected cells; host or cells: CHO (M4-CHO)
T1 sequence (P08173 1-479): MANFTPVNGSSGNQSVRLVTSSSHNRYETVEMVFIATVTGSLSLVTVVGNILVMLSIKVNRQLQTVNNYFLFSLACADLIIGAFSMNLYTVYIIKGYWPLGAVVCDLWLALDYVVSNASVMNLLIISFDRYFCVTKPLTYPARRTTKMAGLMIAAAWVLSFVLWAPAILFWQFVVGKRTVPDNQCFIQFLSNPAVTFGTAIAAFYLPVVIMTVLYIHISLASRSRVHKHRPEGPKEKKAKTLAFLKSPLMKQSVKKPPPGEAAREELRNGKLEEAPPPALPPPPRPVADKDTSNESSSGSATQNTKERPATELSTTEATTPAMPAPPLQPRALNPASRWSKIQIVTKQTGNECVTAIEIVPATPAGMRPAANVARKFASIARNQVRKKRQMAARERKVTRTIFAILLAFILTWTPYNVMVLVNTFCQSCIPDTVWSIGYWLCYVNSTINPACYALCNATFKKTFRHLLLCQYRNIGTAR
In short: (§1)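 FLIPR Ca2+ read, ex 488/em 540 nm, 60 s. Recombinant CHO lines (M1 or M4), dye-loaded Fluo-3 AM 60-90 min at 37° C, probenecid 1 mM, pH 7.4. Agonist: compound alone; inhibition: 15 min compound pre-incubation, then carbachol at EC80 for that subtype.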

M1 muscarinic receptor = target: T2, M1 muscarinic receptor (Homo sapiens, UniProt P11229); assay: Functional mobilization of intracellular calcium (FLIPR) in M1-CHO cells; format: cell-based
T2 construct: expressed in transfected cells; host or cells: CHO (M1-CHO)
T2 sequence (P11229 1-460): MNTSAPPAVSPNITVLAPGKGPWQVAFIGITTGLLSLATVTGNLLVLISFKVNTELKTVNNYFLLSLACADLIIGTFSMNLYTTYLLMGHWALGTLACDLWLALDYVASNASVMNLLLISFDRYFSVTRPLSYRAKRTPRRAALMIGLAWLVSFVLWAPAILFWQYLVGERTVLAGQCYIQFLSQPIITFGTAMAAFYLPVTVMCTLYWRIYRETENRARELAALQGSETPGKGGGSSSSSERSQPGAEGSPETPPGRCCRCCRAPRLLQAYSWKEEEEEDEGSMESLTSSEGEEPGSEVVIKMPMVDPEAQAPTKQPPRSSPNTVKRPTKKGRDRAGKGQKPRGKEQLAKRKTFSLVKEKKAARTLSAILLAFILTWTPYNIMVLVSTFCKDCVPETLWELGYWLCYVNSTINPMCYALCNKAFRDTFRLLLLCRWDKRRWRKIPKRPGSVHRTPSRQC
In short: as §1

[1] = M4 receptor, calcium mobilization
[2] = M4 receptor, calcium mobilization, read-out: M4 Efficacy
[3] = M1 receptor, calcium mobilization
[4] = M1 receptor, calcium mobilization, read-out: M1 Efficacy
[5] = Table 4, 100% efficacy is the maximum response obtained with the Carbachol control
[6] = Table 4, modulating M4 receptor
[7] = Table 4, modulating M1 receptor
[8] = Table 4, M4 receptor, calcium mobilization (FLIPR)
[9] = Table 4, M1 receptor, calcium mobilization (FLIPR)

Compound: CC(=O)N(C)[C@@H]1CC2(CCN(C[C@H]3C[C@H]4CC[C@H]3C4)CC2)c2ccccc21 [compound 339]
- M4 Activity (M4 muscarinic receptor; [1]): x (activity was measured to be greater than 1.0 μM)
- Emax (M4 muscarinic receptor; [2]): < 65%
- M1 Activity (M1 muscarinic receptor; [3]): x (activity was measured to be greater than 1.0 μM)
- Emax (M1 muscarinic receptor; [4]): < 65%

Compound: CN(C)C(=O)N[C@H]1CC2(CCN(CCC3CC4CC[C@@H]3C4)CC2)c2ccccc21 (stereo partly shown) [compound 687]
- Emax (M4 muscarinic receptor; [5]): < 25%
- M4 Activity (M4 muscarinic receptor; [6]): x (activity was measured to be greater than 5.0 μM)
- Emax (M1 muscarinic receptor; [5]): < 25%
- M1 Activity (M1 muscarinic receptor; [7]): x (activity was measured to be greater than 5.0 μM)

Compound: COCCOC(=O)N1C2CCC1CC(N1CCC3(CC1)CN(C(=O)O[C@@H]1CCOC1)c1ccc(F)cc13)C2 (stereo partly shown) [compound 162]
- M4 Activity (M4 muscarinic receptor; [1]): x (activity was measured to be greater than 1.0 μM)
- Emax (M4 muscarinic receptor; [2]): > 85%
- M1 Activity (M1 muscarinic receptor; [3]): xxx (activity was measured to be less than 0.1 μM)
- Emax (M1 muscarinic receptor; [4]): 65 to 85%

Compound: CC(=O)N1CC2(CCN(C3CCN(C(=O)OCC4CC4)CC3)CC2)c2ccccc21 [compound 724]
- Emax (M4 muscarinic receptor; [5]): < 25%
- M4 Activity (M4 muscarinic receptor; [6]): x (activity was measured to be greater than 5.0 μM)
- Emax (M1 muscarinic receptor; [5]): 25 to 100%
- M1 Activity (M1 muscarinic receptor; [7]): xx (activity was measured to be between 2.0 μM and 5.0 μM)

Compound: O=C(O[C@@H]1CCOC1)N1CC2(CCN(C3CC4CCC(C3)N4C(=O)O[C@@H]3CCOC3)CC2)c2cc(F)ccc21 (stereo partly shown) [compound 112]
- M4 Activity (M4 muscarinic receptor; [1]): xx (activity was measured to be between 0.1 μM and 1.0 μM)
- Emax (M4 muscarinic receptor; [2]): < 65%
- M1 Activity (M1 muscarinic receptor; [3]): xxx (activity was measured to be less than 0.1 μM)
- Emax (M1 muscarinic receptor; [4]): 65 to 85%

Compound: CN(C)C(=O)N1CC2(CCN(C3CCN(C(=O)c4ccncc4)CC3)CC2)c2cc(F)ccc21 [compound 791]
- Emax (M4 muscarinic receptor; [5]): < 25%
- M4 Activity (M4 muscarinic receptor; [6]): x (activity was measured to be greater than 5.0 μM)
- Emax (M1 muscarinic receptor; [5]): 25 to 100%
- M1 Activity (M1 muscarinic receptor; [7]): xx (activity was measured to be between 2.0 μM and 5.0 μM)

Compound: CCOC(=O)N1CCC(N2CCC3(CC2)C[C@H](NC(C)=O)c2cc(OC)c(OC)cc23)CC1 [compound 774]
- Emax (M4 muscarinic receptor; [5]): 25 to 100%
- M4 Activity (M4 muscarinic receptor; [6]): x (activity was measured to be greater than 5.0 μM)
- Emax (M1 muscarinic receptor; [5]): 25 to 100%
- M1 Activity (M1 muscarinic receptor; [7]): x (activity was measured to be greater than 5.0 μM)

Compound: CC1(C)C(=O)c2ccccc2C12CCN(C[C@H]1C[C@@H]3C=C[C@@H]1C3)CC2 [compound 20]
- M4 Activity (M4 muscarinic receptor; [1]): xx (activity was measured to be between 0.1 μM and 1.0 μM)
- Emax (M4 muscarinic receptor; [2]): < 65%
- M1 Activity (M1 muscarinic receptor; [3]): x (activity was measured to be greater than 1.0 μM)
- Emax (M1 muscarinic receptor; [4]): < 65%

Compound: Cc1ccc2c(c1)C(=O)CC21CCN(CC2C[C@H]3C=C[C@H]2C3)CC1 (stereo partly shown) [compound 498]
- Emax (M4 muscarinic receptor; [5]): 25 to 100%
- M4 Activity (M4 muscarinic receptor; [6]): xxx (activity was measured to be less than 2.0 μM)
- Emax (M1 muscarinic receptor; [5]): 25 to 100%
- M1 Activity (M1 muscarinic receptor; [7]): xxx (activity was measured to be less than 2.0 μM)

Compound: CC(C)OC(=O)N1CCC(N2CCC3(CC2)CN(C(=O)N(C)C)c2ccc(F)cc23)CC1 [compound 54]
- M4 Activity (M4 muscarinic receptor; [1]): xx (activity was measured to be between 0.1 μM and 1.0 μM)
- Emax (M4 muscarinic receptor; [2]): 65 to 85%
- M1 Activity (M1 muscarinic receptor; [3]): xxx (activity was measured to be less than 0.1 μM)
- Emax (M1 muscarinic receptor; [4]): > 85%

Compound: CCOC(=O)N1CCC(N2CCC3(CC2)CN(C(C)=O)c2ccc(-c4ccc(NC(C)=O)cc4)cc23)CC1 [compound 10]
- M4 Activity (M4 muscarinic receptor; [1]): xx (activity was measured to be between 0.1 μM and 1.0 μM)
- Emax (M4 muscarinic receptor; [2]): 65 to 85%
- M1 Activity (M1 muscarinic receptor; [3]): xx (activity was measured to be between 0.1 μM and 1.0 μM)
- Emax (M1 muscarinic receptor; [4]): 65 to 85%

Compound: CCOC(=O)N1CCC(N2CCC3(CC2)CN(C(=O)C2CCCC2)c2ccc(F)cc23)CC1 [compound 17]
- M4 Activity (M4 muscarinic receptor; [1]): xx (activity was measured to be between 0.1 μM and 1.0 μM)
- Emax (M4 muscarinic receptor; [2]): 65 to 85%
- M1 Activity (M1 muscarinic receptor; [3]): xx (activity was measured to be between 0.1 μM and 1.0 μM)
- Emax (M1 muscarinic receptor; [4]): < 65%

Compound: O=C1CC2(CCN([C@@H]3C[C@@H]4CC[C@@H]3C4)CC2)c2cc(Cl)ccc21 [compound 787]
- Emax (M4 muscarinic receptor; [5]): 25 to 100%
- M4 Activity (M4 muscarinic receptor; [6]): xxx (activity was measured to be less than 2.0 μM)
- Emax (M1 muscarinic receptor; [5]): 25 to 100%
- M1 Activity (M1 muscarinic receptor; [7]): xxx (activity was measured to be less than 2.0 μM)

Compound: C#Cc1ccc2c(c1)C1(CCN(C3CCN(C(=O)OCC)CC3)CC1)CN2C(C)=O [compound 563]
- Emax (M4 muscarinic receptor; [5]): 25 to 100%
- M4 Activity (M4 muscarinic receptor; [6]): xxx (activity was measured to be less than 2.0 μM)
- Emax (M1 muscarinic receptor; [5]): > 100%
- M1 Activity (M1 muscarinic receptor; [7]): xxx (activity was measured to be less than 2.0 μM)

Compound: CC(=O)N[C@H]1CCC2(CCN(CC3CC4CCC3C4)CC2)c2ccccc21 (stereo partly shown) [compound 655]
- Emax (M4 muscarinic receptor; [5]): 25 to 100%
- M4 Activity (M4 muscarinic receptor; [6]): xxx (activity was measured to be less than 2.0 μM)
- Emax (M1 muscarinic receptor; [5]): 25 to 100%
- M1 Activity (M1 muscarinic receptor; [7]): xxx (activity was measured to be less than 2.0 μM)

Compound: O=C1Nc2ccccc2C12CCN(CC1CC3C=CC1C3)CC2 (stereo not shown) [compound 7]
- M4 Activity (M4 muscarinic receptor; [1]): xx (activity was measured to be between 0.1 μM and 1.0 μM)
- Emax (M4 muscarinic receptor; [2]): > 85%
- M1 Activity (M1 muscarinic receptor; [3]): xxx (activity was measured to be less than 0.1 μM)
- Emax (M1 muscarinic receptor; [4]): 65 to 85%

Compound: COC(=O)N1C2CCC1CC(N1CCC3(CC1)CN(C(=O)N(C)C)c1ccc(F)cc13)C2 (stereo not shown) [compound 314]
- M4 Activity (M4 muscarinic receptor; [1]): x (activity was measured to be greater than 1.0 μM)
- Emax (M4 muscarinic receptor; [2]): < 65%
- M1 Activity (M1 muscarinic receptor; [3]): xx (activity was measured to be between 0.1 μM and 1.0 μM)
- Emax (M1 muscarinic receptor; [4]): < 65%

Compound: CCOC(=O)N1C2CCC1CC(N1CCC3(CC[C@H](NC(=O)C4CC4)c4ccccc43)CC1)C2 (stereo partly shown) [compound 664]
- Emax (M4 muscarinic receptor; [5]): 25 to 100%
- M4 Activity (M4 muscarinic receptor; [6]): xxx (activity was measured to be less than 2.0 μM)
- Emax (M1 muscarinic receptor; [5]): 25 to 100%
- M1 Activity (M1 muscarinic receptor; [7]): xxx (activity was measured to be less than 2.0 μM)

Compound: O=C(N[C@H]1CC2(CCN(C3CCCCC3)CC2)c2ccccc21)N1CCCC1 [compound 842]
- Emax (M4 muscarinic receptor; [5]): < 25%
- M4 Activity (M4 muscarinic receptor; [8]): xxx (activity was measured to be less than 2.0 μM)
- Emax (M1 muscarinic receptor; [5]): < 25%
- M1 Activity (M1 muscarinic receptor; [9]): x (activity was measured to be greater than 5.0 μM)

Compound: CCOC(=O)N1CCC(N2CCC3(CC[C@H](NC(C)=O)c4ccccc43)CC2)CC1 [compound 537]
- Emax (M4 muscarinic receptor; [5]): 25 to 100%
- M4 Activity (M4 muscarinic receptor; [6]): xxx (activity was measured to be less than 2.0 μM)
- Emax (M1 muscarinic receptor; [5]): 25 to 100%
- M1 Activity (M1 muscarinic receptor; [7]): xxx (activity was measured to be less than 2.0 μM)

Compound: CC(=O)N[C@H]1CCC2(CCN(CCC3CCCN(C(=O)OC(C)(C)C)C3)CC2)c2ccccc21 (stereo partly shown) [compound 819]
- Emax (M4 muscarinic receptor; [5]): < 25%
- M4 Activity (M4 muscarinic receptor; [8]): x (activity was measured to be greater than 5.0 μM)
- Emax (M1 muscarinic receptor; [5]): 25 to 100%
- M1 Activity (M1 muscarinic receptor; [9]): xxx (activity was measured to be less than 2.0 μM)

Compound: CCCOC(=O)N1C2CCC1CC(N1CCC3(CC1)CN(C(=O)O[C@@H]1CCOC1)c1ccc(F)cc13)C2 (stereo partly shown) [compound 297]
- M4 Activity (M4 muscarinic receptor; [1]): x (activity was measured to be greater than 1.0 μM)
- M4 Efficacy (M4 muscarinic receptor; [1]): xx (efficacy was calculated to be between 85% and 65%)
- M1 Activity (M1 muscarinic receptor; [3]): x (activity was measured to be greater than 1.0 μM)
- M1 Efficacy (M1 muscarinic receptor; [3]): xx (efficacy was calculated to be between 85% and 65%)
